The subject of one data set is HEp-2 cells. Briefly: HEp-2 cell viability (Propidium Iodine cytofluorimetry). It is filed as cell-based, human. How it is done:
The investigation aimed at evaluating the difference in susceptibility to ST 722 of planktonic and sessile Helicobacter cells, using in the latter case an "in vitro" experimental model, which closely resembled the clinical condition occurring "in vivo" in type-B gastritis. […] Additionally, the viability of HEp-2 cells (either infected or not) was evaluated following "in vitro" ST 722 treatment. The degree of cytotoxicity was assessed by cytofiuorimetric analysis of Propidium Iodine-stained HEp-2 cells. […]
The antibacterial and cytotoxic activity of ST 722 against Helicobacter and HEp-2 cells, respectively, was evaluated by using 3 different ST 722 concentrations, namely 0.1, 1.56 (i.e. the MIC value vs. H. pylori NCTC 11637) and 4 mcg/ml. […]
Three and twenty-four hours following ST 722 addition, the cells were trypsinized and harvested by centrifugation at 800 g, The cell pellets were then resuspended in 500 μl PBS and additioned with 6 μl of a 1 mcg/ml Propidium Iodine stock solution in PBS, The same procedure was followed for the control, i.e. HEp-2 cells not infected with H. pylori. The cell suspensions were finally analyzed by means of a FACScan cytofluorimeter.

Data set [1] deals with Staphylococcus aureus (S. aureus LC1). Kind of data set: Protective effect in subcutaneous experimental infection in mice. The data set is classed as in vivo, Staphylococcus aureus in mouse (male CD1). The following applies: for Number of bacteria/mouse: 24 hours. As for the experimental part:
Male CD1 (C. River) mice aged 9 weeks were used (4 animals per group).
A pathogenic strain of Staphylococcus aureus (S. aureus LC1), isolated from a systemic infection in nude mice, was utilized.
The bacterial cells (kept under liquid nitrogen) are thawed and seeded in 10 ml of TSB medium and finally incubated for approximately 18 hours at 37° C.
The culture is then diluted in sterile saline so as to have 2.2×10^7 bacterial cells in a volume of 0.2 ml.
ST 722 was administered subcutaneously, immediately after bacterial inoculation, at the doses of 5, 20, and 50 mcg in 0.2 ml of sterile saline (single treatment).
ST 722 was administered subcutaneously at a dose of 50 mcg (in 0.2 ml of sterile saline) immediately after bacterial inoculation and again 5 hours later, i.e. 100 total mcg per mouse (double treatment).
The "in vivo" experimental model described by Grunberg et al. (GRUNBERG, E., BERGER, J., BESKID, G., CLEELAND, R., PRINCE, N. H. and TITSWORTH, E., 1967. Studies on the "in vitro" and "in vivo" chemotherapeutic properties of the antibiotics myxin. Chemotherapia 12, 272-281) was utilized.
Briefly, it consisted of a subcutaneous injection into the center of the abdominal wall of the standardized bacterial suspension followed by the s.c. administration of the substance in the same area according to the 2 protocols above.
After 24 hours, the animals were sacrificed, and the abdominal wall (including the peritoneum) was exicised from each animal.
The tissue samples were first homogenized by a Potter-Elvehjem tissue grinder in 5 ml of a sterile saline, then a bacterial count was performed by plating the samples onto a S. aureus selective medium (Baird-Parker agar additioned with Ey tellurite enrichment), which allows to easily detect the number of Staphylococcus colonies.
The number of colonies scored in a series of dilutions for each single sample consents to calculate the number of bacterial cells present in the infected tissue sample as follows: [formula] Where Zi is the number of dilutions performed, Ni is the number of plates prepared for each dilution, and Ci is the total number of bacteria scored in each dilution.

Structures are written as SMILES. Several values for one entry are separate records, joined by “and”; a condition that tells them apart may be missing. Identical values can stand only once.

For the molecule `CCCCCCCCCCCOC(=O)CC(C[N+](C)(C)C)OC(=O)CC(C)C` [ST 722, Isovaleryl-L-Carnitine Undecyl Ester Chloride], the “cytotoxicity versus HEp-2 cells” value in the data set with HEp-2 cells (4 mcg/ml (data not shown)) is “unable to induce detectable cytotoxicity”; in the data set on HEp-2 cells (Propidium Iodine staining), “devoid of any cytotoxicity”. In addition, the Number of bacteria/mouse is 3.1×10^5 bacteria/mouse and 5.61 × 10^5 bacteria/mouse in data set [1] (double treatment s.c., 50 mcg twice (5 hours apart)); 1.21 × 10^8 bacteria/mouse in data set [1] (single treatment s.c., 5 mcg, control 1.11 × 10^8); 1.21 × 10^8 bacteria/mouse in data set [1] (single treatment s.c., 20 mcg, control 1.11 × 10^8); 5.61 × 10^5 bacteria/mouse in data set [1] (single treatment s.c., 50 mcg, control 1.11 × 10^8). In addition, the “reduction of the infective process” value in data set [1] (single treatment s.c., 5 mcg) is listed as “unable to reduce the infective process”. In addition, the “reduction of bacterial infection extent” value in data set [1] (single treatment s.c., 20 and 50 mcg) is recorded as “dose-dependently reduced in an appreciable manner the bacterial infection extent”.
